Source: PMC12150326 (The Journal of Organic Chemistry, 2025)

Key:
Type in all cases: cell-based, human
786-0 = tested on: 786-0
Experimental: (§1) (aR)-6, (aS)-6, (aS)-iso -6, and (aR)-iso -6 were submitted to the 60 Cell Screen panel and evaluated at 5 doses (100 μM, 10 μM, 1 μM, 0.1 μM, and 0.01 μM). […] The complete report from this submission is available at the publisher’s Web site as a separate Supporting Information file. For COMPARE analysis, TGI levels of response for (aR)-DM-MTC (6) and (aS)-iso-DM-MTC were compared to those of several established tubulin inhibitors previously tested in the NCI-60 screen.

ACHN = tested on: ACHN
Experimental: as §1

BT-549 = tested on: BT-549
Experimental: as §1

CCRF-CEM = tested on: CCRF-CEM
Experimental: as §1

HCC-2998 = tested on: HCC-2998
Experimental: as §1

HOP-92 = tested on: HOP-92
Experimental: as §1

HT29 = tested on: HT29
Experimental: as §1

IGROV1 = tested on: IGROV1
Experimental: as §1

LOX IMVI = tested on: LOX IMVI
Experimental: as §1

M14 = tested on: M14
Experimental: as §1

MALME-3M = tested on: MALME-3M
Experimental: as §1

MCF7 = tested on: MCF7
Experimental: as §1

MDA-MB-468 = tested on: MDA-MB-468
Experimental: as §1

NCI-H226 = tested on: NCI-H226
Experimental: as §1

NCI-H522 = tested on: NCI-H522
Experimental: as §1

OVCAR-5 = tested on: OVCAR-5
Experimental: as §1

PC-3 = tested on: PC-3
Experimental: as §1

RPMI-8226 = tested on: RPMI-8226
Experimental: as §1

RXF 393 = tested on: RXF 393
Experimental: as §1

SK-MEL-5 = tested on: SK-MEL-5
Experimental: as §1

SN12C = tested on: SN12C
Experimental: as §1

SNB-75 = tested on: SNB-75
Experimental: as §1

SR = tested on: SR
Experimental: as §1

TK-10 = tested on: TK-10
Experimental: as §1

U251 = tested on: U251
Experimental: as §1

UACC-257 = tested on: UACC-257
Experimental: as §1

UACC-62 = tested on: UACC-62
Experimental: as §1

UO-31 = tested on: UO-31
Experimental: as §1

**Q.** How did the Log10GI50 (786-0) turn out when COc1cc(C)c(-c2ccc(=O)c(OC)cc2C)c(OC)c1OC (single isomer, unassigned) [(aR)-iso-6] was run?
**A.** Its Log10GI50 is > -4.00 Molar.

**Q.** What about the Log10LC50 (786-0) of the same compound?
**A.** Its Log10LC50 is > -4.00 Molar.

**Q.** And the Log10TGI (786-0)?
**A.** Its Log10TGI is > -4.00 Molar.

**Q.** And the Log10GI50 (ACHN)?
**A.** The Log10GI50 was > -4.00 Molar.

**Q.** What about the Log10LC50 (ACHN) of the same compound?
**A.** Its Log10LC50 is > -4.00 Molar.

**Q.** And the Log10TGI (ACHN)?
**A.** Its Log10TGI is > -4.00 Molar.

**Q.** What about the Log10GI50 (BT-549) of the same compound?
**A.** Its Log10GI50 is > -4.00 Molar.

**Q.** What about the Log10LC50 (BT-549) of the same compound?
**A.** The Log10LC50 was > -4.00 Molar.

**Q.** What about the Log10TGI (BT-549) of the same compound?
**A.** Its Log10TGI is > -4.00 Molar.

**Q.** What about the Log10GI50 (CCRF-CEM) of the same compound?
**A.** Its Log10GI50 is > -4.00 Molar.

**Q.** And the Log10LC50 (CCRF-CEM)?
**A.** The Log10LC50 was > -4.00 Molar.

**Q.** And the Log10TGI (CCRF-CEM)?
**A.** Its Log10TGI is > -4.00 Molar.

**Q.** And the Log10GI50 (HCC-2998)?
**A.** Its Log10GI50 is > -4.00 Molar.

**Q.** What about the Log10LC50 (HCC-2998) of the same compound?
**A.** The Log10LC50 was > -4.00 Molar.

**Q.** What about the Log10TGI (HCC-2998) of the same compound?
**A.** The Log10TGI was > -4.00 Molar.

**Q.** What about the Log10GI50 (HOP-92) of the same compound?
**A.** The Log10GI50 was > -4.00 Molar.

**Q.** And the Log10LC50 (HOP-92)?
**A.** The Log10LC50 was > -4.00 Molar.

**Q.** And the Log10TGI (HOP-92)?
**A.** The Log10TGI was > -4.00 Molar.

**Q.** What about the Log10GI50 (HT29) of the same compound?
**A.** Its Log10GI50 is > -4.00 Molar.

**Q.** And the Log10LC50 (HT29)?
**A.** Its Log10LC50 is > -4.00 Molar.

**Q.** What about the Log10TGI (HT29) of the same compound?
**A.** Its Log10TGI is > -4.00 Molar.

**Q.** And the Log10GI50 (IGROV1)?
**A.** The Log10GI50 was > -4.00 Molar.

**Q.** What about the Log10LC50 (IGROV1) of the same compound?
**A.** Its Log10LC50 is > -4.00 Molar.

**Q.** What about the Log10TGI (IGROV1) of the same compound?
**A.** The Log10TGI was > -4.00 Molar.

**Q.** What about the Log10GI50 (LOX IMVI) of the same compound?
**A.** Its Log10GI50 is > -4.00 Molar.

**Q.** What about the Log10LC50 (LOX IMVI) of the same compound?
**A.** Its Log10LC50 is > -4.00 Molar.

**Q.** What about the Log10TGI (LOX IMVI) of the same compound?
**A.** The Log10TGI was > -4.00 Molar.

**Q.** And the Log10GI50 (M14)?
**A.** The Log10GI50 was > -4.00 Molar.

**Q.** And the Log10LC50 (M14)?
**A.** Its Log10LC50 is > -4.00 Molar.

**Q.** And the Log10TGI (M14)?
**A.** The Log10TGI was > -4.00 Molar.

**Q.** And the Log10GI50 (MALME-3M)?
**A.** The Log10GI50 was > -4.00 Molar.

**Q.** And the Log10LC50 (MALME-3M)?
**A.** The Log10LC50 was > -4.00 Molar.

**Q.** What about the Log10TGI (MALME-3M) of the same compound?
**A.** Its Log10TGI is > -4.00 Molar.

**Q.** What about the Log10GI50 (MCF7) of the same compound?
**A.** The Log10GI50 was > -4.00 Molar.

**Q.** What about the Log10LC50 (MCF7) of the same compound?
**A.** The Log10LC50 was > -4.00 Molar.

**Q.** And the Log10TGI (MCF7)?
**A.** The Log10TGI was > -4.00 Molar.

**Q.** What about the Log10GI50 (MDA-MB-468) of the same compound?
**A.** Its Log10GI50 is > -4.00 Molar.

**Q.** What about the Log10LC50 (MDA-MB-468) of the same compound?
**A.** Its Log10LC50 is > -4.00 Molar.

**Q.** And the Log10TGI (MDA-MB-468)?
**A.** The Log10TGI was > -4.00 Molar.

**Q.** What about the Log10GI50 (NCI-H226) of the same compound?
**A.** Its Log10GI50 is > -4.00 Molar.

**Q.** What about the Log10LC50 (NCI-H226) of the same compound?
**A.** Its Log10LC50 is > -4.00 Molar.

**Q.** What about the Log10TGI (NCI-H226) of the same compound?
**A.** The Log10TGI was > -4.00 Molar.

**Q.** And the Log10GI50 (NCI-H522)?
**A.** The Log10GI50 was > -4.00 Molar.

**Q.** And the Log10LC50 (NCI-H522)?
**A.** The Log10LC50 was > -4.00 Molar.

**Q.** And the Log10TGI (NCI-H522)?
**A.** The Log10TGI was > -4.00 Molar.

**Q.** And the Log10GI50 (OVCAR-5)?
**A.** The Log10GI50 was > -4.00 Molar.

**Q.** And the Log10LC50 (OVCAR-5)?
**A.** Its Log10LC50 is > -4.00 Molar.

**Q.** And the Log10TGI (OVCAR-5)?
**A.** Its Log10TGI is > -4.00 Molar.

**Q.** What about the Log10GI50 (PC-3) of the same compound?
**A.** The Log10GI50 was > -4.00 Molar.

**Q.** What about the Log10LC50 (PC-3) of the same compound?
**A.** Its Log10LC50 is > -4.00 Molar.

**Q.** And the Log10TGI (PC-3)?
**A.** Its Log10TGI is > -4.00 Molar.

**Q.** What about the Log10GI50 (RPMI-8226) of the same compound?
**A.** Its Log10GI50 is > -4.00 Molar.

**Q.** And the Log10LC50 (RPMI-8226)?
**A.** Its Log10LC50 is > -4.00 Molar.

**Q.** And the Log10TGI (RPMI-8226)?
**A.** Its Log10TGI is > -4.00 Molar.

**Q.** What about the Log10GI50 (RXF 393) of the same compound?
**A.** Its Log10GI50 is > -4.00 Molar.

**Q.** What about the Log10LC50 (RXF 393) of the same compound?
**A.** Its Log10LC50 is > -4.00 Molar.

**Q.** What about the Log10TGI (RXF 393) of the same compound?
**A.** Its Log10TGI is > -4.00 Molar.

**Q.** What about the Log10GI50 (SK-MEL-5) of the same compound?
**A.** Its Log10GI50 is > -4.00 Molar.

**Q.** And the Log10LC50 (SK-MEL-5)?
**A.** Its Log10LC50 is > -4.00 Molar.

**Q.** What about the Log10TGI (SK-MEL-5) of the same compound?
**A.** Its Log10TGI is > -4.00 Molar.

**Q.** And the Log10GI50 (SN12C)?
**A.** Its Log10GI50 is > -4.00 Molar.

**Q.** And the Log10LC50 (SN12C)?
**A.** Its Log10LC50 is > -4.00 Molar.

**Q.** What about the Log10TGI (SN12C) of the same compound?
**A.** Its Log10TGI is > -4.00 Molar.

**Q.** And the Log10GI50 (SNB-75)?
**A.** The Log10GI50 was -4.40 Molar.

**Q.** What about the Log10LC50 (SNB-75) of the same compound?
**A.** Its Log10LC50 is > -4.00 Molar.

**Q.** What about the Log10TGI (SNB-75) of the same compound?
**A.** The Log10TGI was > -4.00 Molar.

**Q.** What about the Log10GI50 (SR) of the same compound?
**A.** The Log10GI50 was > -4.00 Molar.

**Q.** And the Log10LC50 (SR)?
**A.** The Log10LC50 was > -4.00 Molar.

**Q.** And the Log10TGI (SR)?
**A.** Its Log10TGI is > -4.00 Molar.

**Q.** And the Log10GI50 (TK-10)?
**A.** The Log10GI50 was > -4.00 Molar.

**Q.** And the Log10LC50 (TK-10)?
**A.** The Log10LC50 was > -4.00 Molar.

**Q.** And the Log10TGI (TK-10)?
**A.** The Log10TGI was > -4.00 Molar.

**Q.** And the Log10GI50 (U251)?
**A.** The Log10GI50 was > -4.00 Molar.

**Q.** And the Log10LC50 (U251)?
**A.** Its Log10LC50 is > -4.00 Molar.

**Q.** And the Log10TGI (U251)?
**A.** The Log10TGI was > -4.00 Molar.

**Q.** And the Log10GI50 (UACC-257)?
**A.** The Log10GI50 was > -4.00 Molar.

**Q.** And the Log10LC50 (UACC-257)?
**A.** Its Log10LC50 is > -4.00 Molar.

**Q.** And the Log10TGI (UACC-257)?
**A.** Its Log10TGI is > -4.00 Molar.

**Q.** And the Log10GI50 (UACC-62)?
**A.** The Log10GI50 was > -4.00 Molar.

**Q.** And the Log10LC50 (UACC-62)?
**A.** Its Log10LC50 is > -4.00 Molar.

**Q.** And the Log10TGI (UACC-62)?
**A.** The Log10TGI was > -4.00 Molar.

**Q.** What about the Log10GI50 (UO-31) of the same compound?
**A.** Its Log10GI50 is > -4.00 Molar.

**Q.** What about the Log10LC50 (UO-31) of the same compound?
**A.** Its Log10LC50 is > -4.00 Molar.

**Q.** What about the Log10TGI (UO-31) of the same compound?
**A.** The Log10TGI was > -4.00 Molar.
